According to patent US20220195027A1, “ANTI-ANGIOGENESIS THERAPY FOR THE TREATMENT OF PREVIOUSLY TREATED BREAST CANCER” (Genentech, Inc., priority 2009, published 2022):
Where two headings read alike, the source gives them in different places.

Key:
metastatic breast cancer [1] = details: MBC patients with prior anthracycline therapy; cited from earlier work
metastatic breast cancer [2] = details: patients who previously received or were not candidates for anthracyclines; cited from earlier work
[3] = tested on: previously treated metastatic HER2-negative breast cancer; experiment: RIBBON 2 Phase III study, efficacy (PFS, OS) of bevacizumab or placebo plus chemotherapy; format: in vivo, human; details: for Progression free survival, result in words: in combination with chemotherapy, compared to chemotherapy alone
Protocol: The doctors treating the women in the study chose the type of chemotherapy used in combination with Avastin and the chemotherapies were assessed together in the primary endpoint analysis. […] Ribbon 2 was an international, multicenter, randomized, double-blind, placebo-controlled clinical study that enrolled 684 patients with metastatic HER2-negative breast cancer who had previously received chemotherapy for their metastatic disease. See Study Conduct in Table 1 and Patient Characteristics in Table 2. The trial evaluated the addition of either Avastin® (bevacizumab) or placebo to an investigator's choice of chemotherapy. The following chemotherapy regimens were used in the study: taxanes: paclitaxel, protein-bound paclitaxel or docetaxel; gemcitabine; capecitabine; or vinorelbine. Bevacizumab (5 mg/kg Weekly Equivalent) 15 mg/kg IV q 3 weeks; or […] Plus Chemotherapy Taxane • Paclitaxel (e.g., Taxol®): 90 mg/m^2 IV every week for 3 weeks followed by 1 week of rest; or • Paclitaxel (e.g., Taxol®): 175 mg/m^2 IV every 3 weeks; or • Paclitaxel protein-bound particles (Abraxane®): 260 mg/m^2 IV every 3 weeks; or • Docetaxel (Taxotere®): 75-100 mg/m^2 IV every 3 weeks; or Gemcitabine (Gemzar®): 1250 mg/m^2 IV on Days 1 and 8 of each 3-week cycle; or Vinorelbine (Navelbine®): 30 mg/m^2 IV every week; or […] In the study, PFS was defined as the time from randomization to disease progression or death as assessed by the treating physicians in the study (investigator-assessed). Secondary endpoints included objective response rate, duration of response, one-year survival rate, overall survival, PFS assessment by chemotherapy type and safety. […] See Table 3 Primary Efficacy Analysis of PFS and FIG. 2 (Primary Endpoint of PFS) and FIG. 3 (Cohort-Specific Analyses of PFS). PFS results were generally consistent across chemotherapy cohorts with the exception of the small vinorelbine sub-group. Other sub-groups (age, triple negative, etc.) were generally consistent with the primary PFS results. The observed improvement in overall PFS was supported by the secondary efficacy endpoint of ORR. See Table 4 for Interim Efficacy Analysis of OS. […] See, e.g., Table 5, Safety Summary, Safety Population, Table 6 Selected AEs, Safety Population and Table 7 Safety Summary by Chemotherapy Cohort, Safety Population. Bevacizumab was beneficial to patients as a second-line treatment.

[4] = RIBBON 2 Phase III study, safety (adverse events), safety population; format: in vivo; details: in combination with chemotherapy
Text: Ribbon 2 was an international, multicenter, randomized, double-blind, placebo-controlled clinical study that enrolled 684 patients with metastatic HER2-negative breast cancer who had previously received chemotherapy for their metastatic disease. […] The trial evaluated the addition of either Avastin® (bevacizumab) or placebo to an investigator's choice of chemotherapy. The following chemotherapy regimens were used in the study: taxanes: paclitaxel, protein-bound paclitaxel or docetaxel; gemcitabine; capecitabine; or vinorelbine.

Molecule | survival (metastatic breast cancer [1]) | time to disease progression (metastatic breast cancer [1]) | survival (metastatic breast cancer [2]) | time to progression (metastatic breast cancer [2]) | PFS stratified analysis HR (95% CI) ([3]; Chemo/BV vs Chemo/PL, ITT population) | PFS median ([3]; ITT population, investigator-assessed) | Progression free survival, result in words [3] | Progression free survival, result in words ([3]; listed as Avastin) | Safety signals, result in words [4] | Safety signals, result in words ([4]; listed as Avastin)
CC(=O)O[C@@]12CO[C@@H]1C[C@H](O)[C@@]1(C)C(=O)[C@H](O)C3=C(C)[C@@H](OC(=O)[C@H](O)[C@@H](NC(=O)OC(C)(C)C)c4ccccc4)C[C@@](O)([C@@H](OC(=O)c4ccccc4)[C@H]21)C3(C)C [docetaxel] | 11.4 months | 4.4 months | 11.5 months | 4.2 months |  |  |  |  |  | 
bevacizumab: recombinant humanized anti-VEGF monoclonal antibody with human IgG1 framework and CDRs from murine antibody A.4.6.1 |  |  |  |  | 0.775 | 7.2 months | increase in progression free survival | increased the time | No new bevacizumab safety signals were observed | no new Avastin safety signals were observed
